Data set [1] has as its system Glomerella lagenarium (Colletotrichum lagenarium). Description: Fungicidal activity against Glomerella lagenarium (Colletotrichum lagenarium) liquid culture / cucumber / preventative (anthracnose). It counts as cell-based. The settings on record: Colletotrichum orbiculare; 20 ppm in the applied formulation; liquid culture (PDB), growth inhibition measured photometrically after 3 to 4 days; compared to untreated control; read-out: disease control. The gist of the method:
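Percent activity against the untreated check was derived from photometric growth measurements made 2 to 7 days after conidia in potato dextrose broth were combined with compound at 20 ppm. Cultures were kept dark at 24 °C and 96% humidity.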

The test system of data set [2] is Puccinia recondita f. Sp. Tritici. Nature of the data set: Fungicidal activity against Puccinia recondita f. sp. tritici / wheat / leaf disc curative (brown rust). It counts as in vivo. The settings on record: foliar, 24 h, 200 ppm in the applied formulation, wheat leaf segments, curative (applied 1 day after inoculation), compared to untreated control leaf disks, read-out: disease control. The method, boiled down: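 Segments of wheat cv. Kanzler were laid on agar and inoculated with a spore suspension of the rust, then held in darkness at 19° C and 75% relative humidity. One day later the water-diluted formulated compound was applied, with incubation continued under a 12 h light/dark cycle.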

For data set [3] the test system is unchanged. Description: Fungicidal activity against Puccinia recondita f. sp. tritici / wheat / leaf disc preventative (brown rust). It counts as in vivo. The settings on record: foliar, 200 ppm in the applied formulation, wheat leaf segments, preventative, compared to untreated control leaf disks, read-out: disease control. The gist of the method:
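Percent disease control relative to untreated check segments is scored once disease develops, 7 to 9 days after application. Wheat cv. Kanzler segments receive compound spray (200 ppm in formulation) one day before spore inoculation, then sit at 19° C. and 75% rh under 12 h light/12 h dark.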

For a further data set, the system named is Phakopsora Pachyrhizi. Nature of the data set: Fungicidal activity against Phakopsora pachyrhizi / soybean / leaf disc preventative (Asian soybean rust). Type of data set: in vivo. The settings on record: foliar, 200 ppm in the applied formulation, soybean leaf disks, compared to untreated control leaf disks, read-out: disease control. The method, boiled down: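 Scored 12 to 14 days post-application as percent control relative to untreated check discs, rust spores were sprayed under the disc one day after compound treatment. Incubation: 20°C, 75% rh, first 24–36 h in darkness, then 12 h daily light; discs kept on water agar.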

Usually melting point stands for the temperature of the solid-liquid transition.

Regarding `CN(Cc1ccc(-c2noc(C(F)(F)F)n2)cc1)C(=O)CO` [Compound 1.593, 2-hydroxy-N-methyl-N-[[4-[5-(trifluoromethyl)-1,2,4-oxadiazol-3-yl]phenyl]methyl]-acetamide], the melting point was 54 to 60 °C. Moreover, in data set [1], the inhibition of growth at 20 ppm was at least 80%. In addition, in data set [2], the pest or weed control at 200 ppm was at least 80%. For the same compound, in data set [3], the pest or weed control at 200 ppm is at least 80%.

As to `CNC(=O)N(Cc1ccc(-c2noc(C(F)(F)F)n2)cc1)C1CC1` [Compound 3.35, 1-cyclopropyl-3-methyl-1-[[4-[5-(trifluoromethyl)-1,2,4-oxadiazol-3-yl]phenyl]methyl]urea], the melting point lay within 113 to 114 °C. The inhibition of growth at 20 ppm in data set [1] was at least 80%. The pest or weed control at 200 ppm in data set [3] was at least 80%.

For `CON(Cc1ccc(-c2noc(C(F)(F)F)n2)cc1)C(=O)CNC(=O)C1CC1` [Compound 1.790, N-[2-[methoxy-[[4-[5-(trifluoro-methyl)-1,2,4-oxadiazol-3-yl]phenyl]methyl]-amino]-2-oxo-ethyl]-cyclopropane-carboxamide], the melting point was 135.9 to 138.5 °C. The inhibition of growth at 20 ppm in data set [1] was at least 80%. In data set [2], the pest or weed control at 200 ppm was at least 80%. The pest or weed control at 200 ppm in data set [3] was at least 80%.

On to `CCC(=O)NC(C(=O)N(Cc1ccc(-c2noc(C(F)(F)F)n2)cc1)OC)C(C)C` (stereo not drawn) [Compound 1.802, N-methoxy-3-methyl-2-(propanoylamino)-N-[[4-[5-(trifluoromethyl)-1,2,4-oxadiazol-3-yl]phenyl]methyl]-butanamide], for which the melting point lay within 98.5 to 100.6 °C.

Turning to `CON(Cc1ccc(-c2noc(C(F)(F)F)n2)cc1)C(=O)C(C)N.Cl` (stereo not drawn) [Compound 1.792, [2-[methoxy-[[4-[5-(trifluoromethyl)-1,2,4-oxadiazol-3-yl]phenyl]methyl]-amino]-1-methyl-2-oxo-ethyl]ammonium; chloride], the melting point fell in the range of 200.7 to 203.2 °C. Moreover, the pest or weed control at 200 ppm in data set [2] is at least 80%. For the same compound, the pest or weed control at 200 ppm in data set [3] is at least 80%.

Compound `CON(Cc1ccc(-c2noc(C(F)(F)F)n2)c(F)c1)C(=O)c1ccccc1Cl` [Compound 1.581, 2-chloro-N-[[3-fluoro-4-[5-(trifluoromethyl)-1,2,4-oxadiazol-3-yl]phenyl]methyl]-N-methoxy-benzamide] had a melting point of 89 to 95 °C. The inhibition of growth at 20 ppm in data set [1] was at least 80%. The pest or weed control at 200 ppm in data set [3] is at least 80%. In addition, the pest or weed control at 200 ppm with Phakopsora Pachyrhizi was at least 80%.

In turn, `CCC(=O)NCC(=O)N(Cc1ccc(-c2noc(C(F)(F)F)n2)cc1)OC` [Compound 1.793, N-[2-[methoxy-[[4-[5-(trifluoromethyl)-1,2,4-oxadiazol-3-yl]phenyl]methyl]-amino]-2-oxo-ethyl]propanamide] came in with a melting point of 115.3 to 117.8 °C. Further, the inhibition of growth at 20 ppm in data set [1] is at least 80%. Besides, the pest or weed control at 200 ppm in data set [2] is at least 80%. For the same compound, in data set [3], the pest or weed control at 200 ppm is at least 80%.

`CON(Cc1ccc(-c2noc(C(F)(F)F)n2)cc1)C(=O)C(C)NC(=O)OC(C)(C)C` (stereo not drawn) [Compound 1.791, tert-butyl N-[2-(methoxy-[[4-[5-(trifluoromethyl)-1,2,4-oxadiazol-3-yl]phenyl]methyl]-amino]-1-methyl-2-oxo-ethyl]carbamate] yielded a melting point of 108.8 to 111.9 °C. In data set [1], the inhibition of growth at 20 ppm was at least 80%. Further, the pest or weed control at 200 ppm in data set [2] is at least 80%. For the same compound, the pest or weed control at 200 ppm in data set [3] is at least 80%.

The compound `CON(Cc1ccc(-c2noc(C(F)(F)F)n2)cc1)C(=O)/C=C/c1ccccc1` [Compound 1.5, (E)-N-methoxy-3-phenyl-N-[[4-[5-(trifluoromethyl)-1,2,4-oxadiazol-3-yl]phenyl]methyl]-prop-2-enamide] showed a melting point of 94 to 99 °C. Moreover, the inhibition of growth at 20 ppm in data set [1] is at least 80%. In the data set on Phakopsora Pachyrhizi, the pest or weed control at 200 ppm was at least 80%.

For `CCC(=O)N1CCCC1C(=O)N(Cc1ccc(-c2noc(C(F)(F)F)n2)cc1)OC` (stereo not drawn) [Compound 1.803, N-methoxy-1-propanoyl-N-[[4-[5-(trifluoromethyl)-1,2,4-oxadiazol-3-yl]phenyl]methyl]-pyrrolidine-2-carboxamide], the melting point is 148.2 to 150.6 °C.

The compound `CCON(Cc1ccc(-c2noc(C(F)(F)F)n2)cc1)C(=O)OC` [Compound 2.5, methyl N-ethoxy-N-[[4-[5-(trifluoromethyl)-1,2,4-oxadiazol-3-yl]phenyl]methyl]-carbamate] gave a melting point of 50.6 to 53 °C. For the same compound, the inhibition of growth at 20 ppm in data set [1] is at least 80%. Further, the pest or weed control at 200 ppm in data set [2] was at least 80%. For the same compound, the pest or weed control at 200 ppm in the data set with Phakopsora Pachyrhizi was at least 80%.

`CNC(=O)CNC(=O)N(Cc1ccc(-c2noc(C(F)(F)F)n2)cc1)OC` [Compound 3.50, 2-[[methoxy-[[4-[5-(trifluoromethyl)-1,2,4-oxadiazol-3-yl]phenyl]methyl]-carbamoyl]amino]-N-methyl-acetamide] gave a melting point of 126 to 130 °C. Further, the pest or weed control at 200 ppm in data set [2] was at least 80%. The pest or weed control at 200 ppm in data set [3] is at least 80%.

`CON(Cc1ccc(-c2noc(C(F)(F)F)n2)cc1)C(=O)CBr` [Compound 1.806, 2-bromo-N-methoxy-N-[[4-[5-(trifluoromethyl)-1,2,4-oxadiazol-3-yl]phenyl]methyl]-acetamide] came in with a melting point of 81.2 to 84.9 °C.

For the compound `CCC(=O)NC(C)C(=O)N(Cc1ccc(-c2noc(C(F)(F)F)n2)cc1)OC` (stereo not drawn) [Compound 1.797, N-methoxy-2-(propanoylamino)-N-[[4-[5-(trifluoromethyl)-1,2,4-oxadiazol-3-yl]phenyl]methyl]-propanamide], the melting point was 121.7 to 123.9 °C.

Regarding `CON(Cc1ccc(-c2noc(C(F)(F)F)n2)cc1)C(=O)NCC1CC1(F)F` (stereo not drawn) [Compound 3.103, 3-[(2,2-difluorocyclopropyl)-methyl]-1-methoxy-1-[[4-[5-(trifluoromethyl)-1,2,4-oxadiazol-3-yl]phenyl]methyl]urea], the melting point lay within 81 to 84 °C. In addition, in data set [1], the inhibition of growth at 20 ppm is at least 80%. Also, the pest or weed control at 200 ppm in data set [2] was at least 80%. Also, in data set [3], the pest or weed control at 200 ppm was at least 80%.

In turn, `CON(Cc1ccc(-c2noc(C(F)(F)F)n2)cc1)C(=O)Cn1cncn1` [Compound 1.808, N-methoxy-2-(1,2,4-triazol-1-yl)-N-[[4-[5-(trifluoromethyl)-1,2,4-oxadiazol-3-yl]phenyl]methyl]-acetamide] registered a melting point of 125.1 to 127.2 °C.

Consider `CON(Cc1ccc(-c2noc(C(F)(F)F)n2)cc1)C(=O)C(C)NC(=O)C1CC1` (stereo not drawn) [Compound 1.798, N-[2-(methoxy-[[4-[5-(trifluoromethyl)-1,2,4-oxadiazol-3-yl]phenyl]methyl]-amino]-1-methyl-2-oxo-ethyl]-cyclopropane-carboxamide], for which the melting point lay within 129.7 to 134 °C.

The compound `CON(Cc1ccc(-c2noc(C(F)(F)F)n2)cc1)C(=O)C1CCCN1.Cl` (stereo not drawn) yielded a melting point of 185.5 to 188.5 °C.

Consider `CON(Cc1ccc(-c2noc(C(F)(F)F)n2)cc1)C(=O)C1CCCN1C(C)=O` (stereo not drawn) [Compound 1.805, 1-acetyl-N-methoxy-N-[[4-[5-(trifluoromethyl)-1,2,4-oxadiazol-3-yl]phenyl]methyl]-pyrrolidine-2-carboxamide], for which the melting point lay within 93.9 to 96.8 °C.

Compound `CON(Cc1ccc(-c2noc(C(F)(F)F)n2)cc1)C(=O)NCC1(O)CC1` [Compound 3.54, 3-[(1-hydroxycyclopropyl)-methyl]-1-methoxy-1-[[4-[5-(trifluoromethyl)-1,2,4-oxadiazol-3-yl]phenyl]methyl]urea] returned a melting point of 107 to 110 °C. For the same compound, the inhibition of growth at 20 ppm in data set [1] is at least 80%. In addition, the pest or weed control at 200 ppm in data set [2] was at least 80%. In addition, the pest or weed control at 200 ppm in data set [3] is at least 80%.

Regarding `CON(Cc1ccc(-c2noc(C(F)(F)F)n2)cc1)C(=O)CNC(C)=O` [Compound 1.794, 2-acetamido-N-methoxy-N-[[4-[5-(trifluoromethyl)-1,2,4-oxadiazol-3-yl]phenyl]methyl]-acetamide], the melting point fell in the range of 132.8 to 134.9 °C. Besides, in data set [1], the inhibition of growth at 20 ppm is at least 80%. Besides, in data set [2], the pest or weed control at 200 ppm is at least 80%. Besides, in data set [3], the pest or weed control at 200 ppm was at least 80%.

On to `CON(Cc1ccc(-c2noc(C(F)(F)F)n2)cn1)C(=O)c1ccccc1Cl` [Compound 1.572, 2-chloro-N-methoxy-N-[[5-[5-(trifluoromethyl)-1,2,4-oxadiazol-3-yl]-2-pyridyl]methyl]-benzamide], for which the melting point was 80 to 89 °C. Moreover, the inhibition of growth at 20 ppm in data set [1] is at least 80%. Further, the pest or weed control at 200 ppm in data set [3] is at least 80%.

With `CON(Cc1ccc(-c2noc(C(F)(F)F)n2)cc1)C(=O)CNC(=O)OC(C)(C)C` [Compound 1.787, tert-butyl N-[2-(methoxy-[[4-[5-(trifluoromethyl)-1,2,4-oxadiazol-3-yl]phenyl]methyl]-amino]-2-oxo-ethyl]carbamate], the melting point fell in the range of 80 to 83.1 °C. The inhibition of growth at 20 ppm in data set [1] is at least 80%. Moreover, the pest or weed control at 200 ppm in data set [2] is at least 80%. Moreover, in data set [3], the pest or weed control at 200 ppm is at least 80%.

Values taken from US11180462B2, “Microbiocidal oxadiazole derivatives” (SYNGENTA PARTICIPATIONS AG, priority 2015, dated 2021).
